Reference: patent publication US6818215B2, “Antibodies to senescent cell-derived inhibiters of DNA synthesis” (priority 1991, dated 2004)

Legend:
[1] = tested on: SV40 early promoter with three E2F binding sites (SV/E2F); assay: CAT reporter transcription assay, SV/E2F-CAT; format: cell-based; conditions: A31 cells
Protocol: The effect of the human SDI-1 on transcription driven by two E2F-responsive promoters was determined. Proliferating A31 cells were transfected with an SDI-1 expression vector in which the SDI-1 cDNA was driven by the strong constitutive cytomegalovirus early promoter (CMV) together with a reporter vector in which the chloramphenicol acetyltransferase (CAT) gene was driven by either the hamster dihydrofolate reductase (DHFR) promoter or the human cdc2 promoter (cdc2-CAT). A31 cells are Balb/c murine 3T3 fibroblasts whose origin and growth properties have been described (Lu, K. et al., Molec. Cell. Biol. 9:3411-3417 (1989); Dimri, G. P et al., J. Biol. Chem. 269:16180-16186 (1994), herein incorporated by reference). Cells were transfected with 2 μg of expression vectors, reporters vectors (for transactivation) and the CMV-β-gal identification/normalization vector using Lipofectamine (Gibco-BRL), as described by Dimri, G. P et al. (J. Biol. Chem. 269:16180-16186 (1994), herein incorporated by reference), The vector backbone was added to the mixture as needed to equalize the amount of transfected DNA. […]
To more critically ascertain whether the inhibition of transcription by SDI-1 was E2F-dependent, three E2F binding sites were inserted into the SV40 early promoter and the effect of CMV-SDI-1 on CAT activity driven by this modified promoter (SV/E2F) was determined. […]

[2] = tested on: B16 murine melanoma cell line; assay: Lipofectamine liposome-mediated delivery of SDI-1 protein; format: cell-based
[3] = tested on: E2F/p107/cdk/cyclin complexes; assay: Effect of recombinant SDI-1 on DNA-protein complexes at an E2F binding site in nuclear extracts; format: biochemical; conditions: extracts from cells in late G1
Excerpt: E2F binding sites are occupied by protein complexes, whose composition—at least by in vitro analyses—depend on the cellular growth state and stage of the cell cycle (Chellappan, S. P. et al., Cell 65:1053-1061 (1991); Nevins, J. R., Science 258:424-429 (1992); Farnham, P. J. et al., Biochim. Biophys. Acta 1155:125-131 (1993)). To determine which if any of these complexes might be a target for SDI-1, the effect of recombinant SDI-1 protein on DNA-protein complexes that associate with an E2F binding site in vitro was determined
E2F-1 is induced a few hours prior to S phase (Shan, B. et al., Molec. Cell. Biol. 12:5620-5631 (1992); Slansky, J. E. et al., Molec. Cell. Biol. 13:1610-1618 (1993); Dimri, G. P et al., J. Biol. Chem. 269:16180-16186 (1994)) at about which time nuclear extracts from cells in mid to late G1 contain increased levels of free E2F, E2F in association with pRb, and E2F in association with p107, cdk2 and cyclin E (mid-late G1-early S). Of the complexes present in extracts from cells in late G1, only the E2F/p107/cdk/cyclin complexes were disrupted by recombinant SDI-1.

[4] = tested on: A31 cells; assay: DNA synthesis in transfected (β-galactosidase positive) cells, radiolabeled nuclei; format: cell-based, murine
Protocol: The effect of the human SDI-1 on transcription driven by two E2F-responsive promoters was determined. Proliferating A31 cells were transfected with an SDI-1 expression vector in which the SDI-1 cDNA was driven by the strong constitutive cytomegalovirus early promoter (CMV) together with a reporter vector in which the chloramphenicol acetyltransferase (CAT) gene was driven by either the hamster dihydrofolate reductase (DHFR) promoter or the human cdc2 promoter (cdc2-CAT). A31 cells are Balb/c murine 3T3 fibroblasts whose origin and growth properties have been described (Lu, K. et al., Molec. Cell. Biol. 9:3411-3417 (1989); Dimri, G. P et al., J. Biol. Chem. 269:16180-16186 (1994), herein incorporated by reference). Cells were transfected with 2 μg of expression vectors, reporters vectors (for transactivation) and the CMV-β-gal identification/normalization vector using Lipofectamine (Gibco-BRL), as described by Dimri, G. P et al. (J. Biol. Chem. 269:16180-16186 (1994), herein incorporated by reference), The vector backbone was added to the mixture as needed to equalize the amount of transfected DNA. Seventy-two hours later, the cells were lysed and assayed for chloramphenicol acetyl transferase (CAT) and β-galactosidase activity. Both DHFR and cdc2 were expressed by proliferating cells, largely due to E2F-mediated transcription that is dependent on E2F binding sites in the 5′ regulatory regions of these genes (Slansky, J. E. et al., Molec. Cell. Biol. 13:1610-1618 (1993); Dalton, S., EMBO J. 11:1797-1804 (1992)).
These mutants included a naturally occurring SDI-1 variant (p21pm) in which the serine at amino acid 31 was replaced by an arginine. This polymorphism has been detected in approximately 10% of normal human cells thus far examined, and appears to result in a slight reduction in the antiproliferative properties of SDI-1 (Table 17). A SDI-1 expression vector for this allele (CMV-p21pm) was compared with CMV-SDI-1 for ability to inhibit DNA synthesis and E2F-mediated transactivation in proliferating A31 cells. […]

SDI-1: senescent cell derived inhibitor of DNA synthesis, 164 amino acid protein, SEQ ID NO:2
Transcription (Normalized) % Activity [1]: 50%
Transcription (Normalized) % Inhibition [1]: 50%
3H-Tdr Uptake ([2]; 48 hr): 2134 ± 294
Cell Number ([2]; 48 hr): 7820 ± 141
Ratio of SDI-1 Treated to BSA Treated, 3H-Tdr Uptake ([2]; 48 hr): 0.34
Ratio of SDI-1 Treated to BSA Treated, Cell No. ([2]; 48 hr): 0.29
detection of SDI-1 in cells ([2]; 72 hours after liposome treatment): not detectable
3H-Tdr Uptake ([2]; 72 hr): 8765 ± 533
Cell Number ([2]; 72 hr): 23710 ± 1485
Ratio of SDI-1 Treated to BSA Treated, 3H-Tdr Uptake ([2]; 72 hr): 0.3
Ratio of SDI-1 Treated to BSA Treated, Cell No. ([2]; 72 hr): 0.28
fraction of cells with SDI-1 detected in the nuclei ([2]; after 3-4 hours): ½
fraction of cells with SDI-1 detected in the nuclei ([2]; after 9 hours): ⅓
effect on E2F/p107/cdk/cyclin complexes [3]: disrupted
inhibition (antiproliferative effect) ([4]; A31 cells): 65-75%
DNA Synthesis % LN ([4]; percentage of transfected cells with radiolabeled nuclei): 17%
DNA Synthesis % Inhibition ([4]; proliferating A31 cells): 75%
